# Reference: patent US9284318B2, “Protein kinase inhibitors” (Pharmascience, Inc., priority 2011, dated 2016)
# Tests used:
# [1] = system: MV4-11 cells; assay: Human MV4-11 biphenotypic B myelomonocytic leukemia cell survival assay; type: cell-based; settings: cell survival at 72h, Cell Titer-Glo
# Method: Human MV4-11 Biphenotypic B Myelomonocytic Leukemia Cell Survival Assay
# Biphenotypic B myelomonocytic leukemia MV4-11 cells (ATCC CRL-9591) were cultured in suspension at 37° C., 5% CO2 in complete medium (RPMI supplemented with 10% FBS, 1% penicillin/streptomycin). One day prior to treatment, cells per seeded in 96-well plates at 8000 cells/well in complete medium. The following day, triplicate wells were treated with compound curves of 100, 1000 or 10,000 nM starting concentration according to compound potency. Cell survival was measured 72h later by Cell Titer-Glo Luminescent Assay (Promega). Luminescence was read using a Tecan Infinite F200 microplate reader. EC50 values (50% survival in the presence of compound as compared to vehicle treated controls) were calculated from non-linear fit dose response compound curves using CambridgeSoft BioAssay software (Perkin Elmer).
# [2] = target: T1, recombinant human colony stimulating factor 1 receptor (FMS) (Homo sapiens, UniProt P07333); assay: Biochemical cFMS (CSF1R) fluorescence polarization kinase assay; settings: 10 μM ATP, 100 μM substrate, 60 minutes
# T1 construct: containing the catalytic domain (amino acids 538-910); His tag; purchased Invitrogen; host or cells: insect cells
# T1 sequence (P07333 538-910): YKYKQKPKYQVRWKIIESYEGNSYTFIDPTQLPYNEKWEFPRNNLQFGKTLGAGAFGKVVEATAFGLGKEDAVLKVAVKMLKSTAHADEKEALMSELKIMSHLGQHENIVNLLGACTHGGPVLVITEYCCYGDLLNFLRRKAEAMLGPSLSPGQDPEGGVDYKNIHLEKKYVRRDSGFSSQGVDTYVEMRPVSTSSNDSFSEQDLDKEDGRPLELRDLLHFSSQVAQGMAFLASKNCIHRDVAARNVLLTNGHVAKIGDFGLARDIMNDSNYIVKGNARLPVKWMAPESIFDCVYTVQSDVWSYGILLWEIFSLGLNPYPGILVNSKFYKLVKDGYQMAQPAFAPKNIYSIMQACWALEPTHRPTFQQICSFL
# Method: Biochemical cFMS (CSF1R) Assay:
# Fluorescence polarization-based kinase biochemical assays were performed in 384 well-plate format using histidine tagged recombinant human colony stimulating factor 1 receptor (FMS) supplied from Invitrogen™ (containing the catalytic domain (amino acids 538-910), expressed in insect cells and activated in vitro via auto phosphorylation) and a modified protocol of the KinEASE™ FP Fluorescein Green Assay supplied from Millipore™.
# Kinase reactions were performed in 384 well plate format at room temperature for 60 minutes in presence of 100 μM substrate, 10 μM ATP and variable test article concentrations. The reaction was stopped with EDTA/KinEASE™ detection reagents and the polarization measured on a Tecan 500 instrument. From the dose-response curve obtained, the IC50 was estimated using Graph pad Prisms® using a non linear fit curve.
# [3] = system: M-NFS-60 M-CSF-dependent myeloid leukemia cells; assay: Murine M-CSF-dependent M-NFS-60 cell survival assay; type: cell-based; settings: Mus musculus; cell survival at 72 hours, 20 ng/ml M-CSF, Cell Titer-Glo
# Method: Cellular Assays: Murine M-CSF-Dependent M-NFS-60 Cell Survival Assay
# Murine M-NFS-60 M-CSF-dependent myeloid leukemia cells were purchased from ATCC (CRL-1838). Cells were routinely cultured at 37° C., 5% CO2 in complete medium (RPMI supplemented with 10% FBS, 1% penicillin/streptomycin, 50 uM beta mercaptoethanol) containing 30 ng/ml recombinant murine M-CSF (Peprotech 315-02). For survival assays, cells were transferred to depleted medium (complete medium depleted of M-CSF) for 24 hours prior to initiation of each experiment. M-CSF-starved cells were harvested and re-suspended in complete medium containing 20 ng/ml M-CSF. Cells were seeded at 25,000 cells/well in 96-well plates and incubated for 1 hour at 37° C., 5% CO2. Cells were treated with 1 uM or 10 uM compound curves in triplicate and cell survival was measured 72 hours later by Cell Titer-Glo Luminescent Assay (Promega). Luminescence was read using a Tecan Infinite F200 microplate reader. EC50 values (50% survival in the presence of compound as compared to vehicle treated controls) were calculated from non-linear fit dose response compound curves using GraphPad Prism Software.
Compound,IC50 [2] [nM],EC50 [1] [nM],EC50 [3] [nM]
Nc1ncnc2c3c(n(-c4ccc(NC(=O)c5ccccc5)cc4)c12)CCC3 [Compound 10],> 1000,> 1000,> 1000
Nc1ncnc2c3c(n(-c4ccc(NC(=O)NC5CCCCC5)cc4)c12)CCC3 [Compound 41],100 to 1000,< 100,100 to 1000
Nc1ncnc2c3c(n(-c4ccc(NC(=O)Nc5ccc(F)cc5)cc4)c12)COC3 [Compound 33],100 to 1000,100 to 1000,100 to 1000
Nc1ncnc2c3c(n(-c4ccc(NC(=O)Nc5cc(C(F)(F)F)ccc5F)cc4)c12)COC3 [Compound 67],100 to 1000,< 100,100 to 1000
Nc1ncnc2c3c(n(-c4ccc(NC(=O)Nc5ccccc5OC(F)F)cc4)c12)CCC3 [Compound 68],100 to 1000,< 100,100 to 1000
COc1ccccc1NC(=O)Nc1ccc(-n2c3c(c4ncnc(N)c42)CCC3)cc1 [Compound 16],100 to 1000,< 100,< 100
C[C@@H](NC(=O)Nc1ccc(-n2c3c(c4ncnc(N)c42)CCC3)cc1)c1ccc(F)cc1 [Compound 73],100 to 1000,< 100,100 to 1000
Cc1ccc(F)c(NC(=O)Nc2ccc(-n3c4c(c5ncnc(N)c53)COC4)cc2)c1 [Compound 47],100 to 1000,< 100,< 100
COc1ccc(NC(=O)Nc2ccc(-n3c4c(c5ncnc(N)c53)CCC4)cc2)c(F)c1 [Compound 54],< 100,< 100,< 100
Nc1ncnc2c3c(n(-c4ccc(NC(=O)Nc5ccc6c(c5)OCO6)cc4)c12)CCC3 [Compound 28],< 100,< 100,< 100
Nc1ncnc2c3c(n(-c4ccc(NC(=O)NCc5ccccc5)cc4)c12)CCC3 [Compound 30],100 to 1000,< 100,100 to 1000
Nc1ncnc2c3c(n(-c4ccc(NC(=O)Nc5cc(C(F)(F)F)ccc5F)c(F)c4)c12)CCC3 [Compound 62],100 to 1000,< 100,100 to 1000
CS(=O)(=O)c1ccc(NC(=O)Nc2ccc(-n3c4c(c5ncnc(N)c53)CCC4)cc2)cc1 [Compound 64],100 to 1000,100 to 1000,> 1000
Nc1ncnc2c3c(n(-c4ccc(Nc5ccccc5)cc4)c12)CCC3 [Compound 12],> 1000,> 1000,> 1000
Nc1ncnc2c3c(n(-c4ccc(NS(=O)(=O)c5ccccc5)cc4)c12)CCC3 [Compound 3],> 1000,> 1000,> 1000
C[C@@H](NC(=O)Nc1ccc(-n2c3c(c4ncnc(N)c42)CCC3)cc1)c1ccccc1 [Compound 45],100 to 1000,< 100,100 to 1000
Nc1ncnc2c3c(n(-c4ccc(NC(=O)NCCc5ccccc5)cc4)c12)CCC3 [Compound 46],100 to 1000,< 100,100 to 1000

# Now from value to molecule, other results behind:
IC50 [2] [nM],Compound,EC50 [1] [nM],EC50 [3] [nM]
100 to 1000,Nc1ncnc2c3c(n(-c4ccc(NC(=O)Nc5cccc(Cl)c5)cc4)c12)CCC3 [Compound 20],100 to 1000,< 100
100 to 1000,CS(=O)(=O)c1cccc(NC(=O)Nc2ccc(-n3c4c(c5ncnc(N)c53)CCC4)cc2)c1 [Compound 72],< 100,100 to 1000
< 100,COc1cccc(NC(=O)Nc2ccc(-n3c4c(c5ncnc(N)c53)CCC4)cc2)c1 [Compound 11],< 100,< 100
100 to 1000,Nc1ncnc2c3c(n(-c4ccc(NC(=O)Nc5ccccc5C(F)(F)F)cc4)c12)CCC3 [Compound 23],> 1000,100 to 1000
100 to 1000,COc1ccc(C(F)(F)F)cc1NC(=O)Nc1ccc(-n2c3c(c4ncnc(N)c42)CCC3)cc1 [Compound 58],< 100,100 to 1000
100 to 1000,Nc1ncnc2c3c(n(-c4ccc(NC(=O)Nc5ccc(F)cc5F)cc4)c12)CCC3 [Compound 50],< 100,< 100
100 to 1000,Nc1ncnc2c3c(n(-c4ccc(NC(=O)Nc5cccc(OC(F)F)c5)cc4)c12)CCC3 [Compound 57],< 100,< 100
100 to 1000,N#Cc1cccc(NC(=O)Nc2ccc(-n3c4c(c5ncnc(N)c53)CCC4)cc2)c1 [Compound 66],< 100,100 to 1000
< 100,Nc1ncnc2c3c(n(-c4ccc(NC(=O)Nc5ccc(OC(F)F)cc5)cc4)c12)CCC3 [Compound 27],< 100,< 100
100 to 1000,Nc1ncnc2c3c(n(-c4ccc(NC(=O)Nc5ccc(C(F)(F)F)cc5)cc4)c12)CCC3 [Compound 21],100 to 1000,< 100
> 1000,N#Cc1ccc(NC(=O)Nc2ccc(-n3c4c(c5ncnc(N)c53)CCC4)cc2)cc1 [Compound 65],< 100,100 to 1000
100 to 1000,Nc1ncnc2c3c(n(-c4ccc(NC(=O)Nc5ccc(Cl)c(C(F)(F)F)c5)cc4)c12)CCC3 [Compound 59],< 100,100 to 1000
< 100,COc1ccc(NC(=O)Nc2ccc(-n3c4c(c5ncnc(N)c53)CCC4)cc2)cc1F [Compound 56],< 100,< 100
< 100,Cc1ccc(F)c(NC(=O)Nc2ccc(-n3c4c(c5ncnc(N)c53)CCC4)cc2)c1 [Compound 43],< 100,< 100
100 to 1000,Nc1ncnc2c3c(n(-c4ccc(NC(=O)Nc5cccc(C(F)(F)F)c5)cc4)c12)CCC3 [Compound 17],< 100,< 100
100 to 1000,COc1ccc(NC(=O)Nc2ccc(-n3c4c(c5ncnc(N)c53)CCC4)cc2)cc1C(F)(F)F [Compound 55],< 100,100 to 1000
< 100,Nc1ncnc2c3c(n(-c4ccc(NC(=O)Nc5cccc(F)c5)cc4)c12)CCC3 [Compound 19],100 to 1000,< 100
100 to 1000,Nc1ncnc2c3c(n(-c4ccc(NC(=O)Nc5ccccc5F)cc4)c12)CCC3 [Compound 39],100 to 1000,< 100
